± gives the expanded uncertainty stated by the source.

The conditions of the data set: 101.33 kPa, Liquid, Vibrating tube method.

In the case of `CC(=O)O` [acetic acid], the mass density came out at 1055.01 ± 1 kg/m3 (288.2 K), 1043.67 ± 1 kg/m3 (298.2 K) and 1026.72 ± 1 kg/m3 (313.2 K).
`Cc1ccccc1` [toluene]: the mass density by setting is: (288.2 K) 871.92 ± 1 kg/m3; (298.2 K) 862.49 ± 1 kg/m3; (313.2 K) 848.23 ± 1 kg/m3.
For `O` [water], the mass density (313.2 K) was 992.13 ± 1 kg/m3.

The record behind these values is the NIST ThermoML archive (doi:10.1016/j.jct.2014.02.005).
